Marks after values point to notes of the source that are not given here. Numbered stars: 1 amine (or outer) side, 2 acyl side, 3 side chain; on linkers, the order of the positions; unused ones are H or OH. Bridge positions count the residues as written; N and C are the ends. Square brackets hold non-standard residues; d marks the D form. Peptide text beside a SMILES is read from it. I, II: the chains in the order shown. Actinocin(9to1) = Cc1c2oc3c(C)ccc(C(=O)[*:1])c3nc-2c(C(=O)[*:2])c(N)c1=O; NMeV = CN[C@H](C(=O)O)C(C)C; Sar = CNCC(=O)O
How the values were obtained:
[1] = tested on: PRG1 mRNA; assay: Northern analysis of PRG1 mRNA expression in MCF-7 cells; assay type: cell-based, human
Method: (§1) The sources and maintenance of the human breast cancer cell lines used in this study were as described previously (33). 184 and 184B5 normal breast epithelial cells were the kind gift of Dr. M. Stampfer (University of California, Berkley, Calif.) and were maintained in mammary epithelial growth medium (Clonetics, San Diego, Calif.). Tissue culture experiments in serum-free medium were performed as previously described (6, 27). Briefly, T-47D cells were taken from stock cultures and passaged for 6 days in phenol red-free RPMI medium supplemented with 10% charcoal-treated fetal calf serum (FCS). During this time the cells received two changes of medium at 1- to 3-day intervals. The cells were replated into replicate 150 cm^2 flasks in medium containing 10% charcoal-treated FCS and the medium replaced with serum-free medium on the next two days. Serum-free medium was supplemented with 300 nM human transferrin. In experiments involving ORG 2058 the final serum-free medium contained 10 μg/ml (1.7 μM) human insulin. Three days after completion of these pre-treatments growth factor, steroid, steroid antagonist or cycloheximide were added. Control flasks received vehicle to the same final concentration. Cell cycle phase distribution was determined by analytical DNA flow cytometry, as previously described (6, 34).
(§2) Tissue culture experiments in serum-containing medium were performed as previously described (34). The experiment with livial and actinomycin D was as for experiments in serum-containing medium except that the medium contained 5% charcoal-treated FCS. Actinomycin D was added at the same time as livial. The experiment involving “estrogen rescue” was performed as described (30). […]
(§3) Cells harvested from triplicate 150 cm^2 flasks were pooled and RNA extracted by a guanidinium-isothiocyanate-cesium chloride procedure and Northern analysis was performed as previously described with 20 μg of total RNA per lane (6, 11). […] The mRNA abundance was quantified by densitometric analysis of autoradiographs using Molecular Dynamics Densitometer and software (Molecular Dynamics, Sunnyvale, Calif.). […]

[2] = tested on: PRG1 mRNA; assay: Northern analysis of PRG1 mRNA expression in T-47D cells; assay type: cell-based, human; details: for Induction of PRG1 mRNA by mitogen: T-47D growth-arrested by serum deprivation, 3 or 4 h, insulin 1.7 μM, heregulin 5 nM, bFGF 55 pM; for Relative mRNA Expression: relative to cells maintained in serum-free medium
Method: as §1
Tissue culture experiments in serum-containing medium were performed as previously described (34). The experiment with livial and actinomycin D was as for experiments in serum-containing medium except that the medium contained 5% charcoal-treated FCS. Actinomycin D was added at the same time as livial. The experiment involving “estrogen rescue” was performed as described (30). Briefly, MCF-7 cells were cultured in medium containing 5% FCS for 2 days. The antiestrogen ICI 182780 (10 nM) was then added to the medium for 48 h. after which the growth-arrested cells were treated with 100 nM 17β-estradiol, also added directly to the medium, resulting in the synchronous re-entry of cells into the cell cycle.
Cells harvested from triplicate 150 cm^2 flasks were pooled and RNA extracted by a guanidinium-isothiocyanate-cesium chloride procedure and Northern analysis was performed as previously described with 20 μg of total RNA per lane (6, 11). The membranes were hybridized overnight at 50° C. with probes labelled with [α-^32P]dCTP (Amersham Australia Pty Ltd, Castle Hill, Australia) using the Random Prime Labelling Kit (Promega, Sydney, Australia). The membranes were washed at a highest stringency of 0.2× SSC (30 mM NaCl. 3 mM sodium citrate [pH 7.0])+ 1% sodiwn dodecyl sulfate at 65° C. and exposed to Kodak X-OMAT or BIOMAX film at −70° C. Human multiple tissue Northern blots (Clontech Laboratories, Inc. Palo Alto, Calif.) were hybridized under conditions recommended by the manufacturer. The mRNA abundance was quantified by densitometric analysis of autoradiographs using Molecular Dynamics Densitometer and software (Molecular Dynamics, Sunnyvale, Calif.). The accuracy of loading was estimated by hybridizing membranes with a [γ-^32P]ATP end-labelled oligonucleotide complementary to 18S rRNA.

[3] = tested on: T-47D cells; details: previously reported (refs 32, 54); cited from earlier work
[4] = tested on: PRG1 mRNA; assay: Northern analysis of PRG1 mRNA expression in MDA-MB-231 cells; assay type: cell-based, human
Method: as §1, §2, §3

[5] = T-47D, insulin-supplemented serum-free medium, 10 nM

C[C@]12CC[C@@H]3c4ccc(O)cc4CC[C@H]3[C@@H]1CC[C@@H]2O [17β-estradiol]
Relative mRNA Expression ([1]; MCF-7, at 4 h, after ICI 182 780 pre-treatment for 48 h, relative to antiestrogen treated control): 2.0^‡ at 4 h | Induction of PRG1 mRNA by estrogen rescue ([1]; MCF-7 growth-arrested by ICI 182780 (10 nM, 48 h), then 100 nM 17β-estradiol, 4 h): 2.0 fold

C[C@@H]1C[C@@H]([C@H](O)CC2CC(=O)NC(=O)C2)C(=O)[C@@H](C)C1 [cycloheximide, Cycloheximide]
Effect on PRG1 mRNA, compound alone ([2]; T-47D, cycloheximide 20 μg/ml alone, 3 h): increase of PRG1 mRNA to a level similar to that achieved by ORG 2058 alone | Effect on progestin-mediated induction of PRG1 mRNA ([2]; T-47D, cycloheximide 20 μg/ml with ORG 2058 10 nM, 3 h): failed to block

bFGF: human recombinant bFGF
Potency as mitogen in stimulating cell cycle progression [3]: equipotent | Induction of PRG1 mRNA by mitogen [2]: 1.9 fold | Relative mRNA Expression ([2]; T-47D, at 3 h): 2.6^† at 3 h

heregulin
Potency as mitogen in stimulating cell cycle progression [3]: one of the most potent mitogens | Induction of PRG1 mRNA by mitogen [2]: 2.6 fold | Relative mRNA Expression ([2]; T-47D, at 4 h): 1.9^† at 4 h

CCC1CC2C3CCC4=CC(=O)CCC4C3CCC2(C)C1C(=O)CO (stereo not drawn) [ORG 2058, 16α-ethyl-21-hydroxy-19-norpregn-4-en-3,20-dione]
PRG1 mRNA decrease below control mRNA levels ([4]; MDA-MB-231 (PR-negative), 10 nM, 3 h): approximately 30% | PRG1 mRNA level at 6 h after the decrease at 3 h (in words) ([4]; MDA-MB-231, 6 h, ORG 2058 10 nM, dexamethasone 100 nM): recovery | PRG1 mRNA increase above control mRNA levels ([1]; MCF-7 (PR-positive), 5% FCS, 10 nM, 3 h): approximately 2 fold | Superinduction of PRG1 mRNA relative to control ([2]; T-47D, ORG 2058 10 nM in presence of cycloheximide 20 μg/ml, 3 h, experiment of FIG. 8): 12 fold | Time by which PRG1 mRNA had returned to control levels [2, 5]: ≤ 12 h | Time of maximal PRG1 mRNA induction [2, 5]: 3 h | Maximal PRG1 mRNA induction relative to time-matched control ([2]; T-47D, insulin-supplemented serum-free medium, 10 nM, 3 h, experiment of FIG. 5): 4.4 fold

C#C[C@]1(O)CC[C@H]2[C@@H]3[C@H](C)CC4=C(CCC(=O)C4)[C@H]3CC[C@@]21C [livial, (7α, 17α)-17-hydroxy-7-methyl-19-norpregn-5(10)-en-20-yn-3-one]
PRG1 mRNA induction (in words) ([2]; T-47D, 5% charcoal-treated FCS, 10 nM): induced | PRG1 mRNA induction in presence of transcription inhibitor ([2]; T-47D, 5% charcoal-treated FCS, livial 10 nM with actinomycin D 5 μg/ml): not induced

CC#C[C@]1(O)CC[C@H]2[C@@H]3CCC4=CC(=O)CCC4=C3[C@@H](c3ccc(N(C)C)cc3)C[C@@]21C [RU 486]
Effect on PRG1 mRNA levels, compound alone ([2]; T-47D, serum-free medium with insulin, 100 nM, 3 h): no effect

insulin: human insulin, Actrapid; CSL-Novo
Potency as mitogen in stimulating cell cycle progression [3]: equipotent | Induction of PRG1 mRNA by mitogen [2]: 2.8 fold | Relative mRNA Expression ([2]; T-47D, at 4 h): 2.8^† at 4 h

Cc1c2oc3c(C)ccc(C(=O)N[C@@H]4C(=O)N[C@H](C(C)C)C(=O)N5CCC[C@H]5C(=O)N(C)CC(=O)N(C)[C@@H](C(C)C)C(=O)O[C@@H]4C)c3nc-2c(C(=O)N[C@@H]2C(=O)N[C@H](C(C)C)C(=O)N3CCC[C@H]3C(=O)N(C)CC(=O)N(C)[C@@H](C(C)C)C(=O)O[C@@H]2C)c(N)c1=O [actinomycin D] (I: T[dV]P[Sar][NMeV] / II: T[dV]P[Sar][NMeV]; ester I:1-I:C, II:1-II:C; linker I:N-II:N via Actinocin(9to1))
Effect on progestin induction of PRG1 mRNA ([2]; T-47D, actinomycin D 5 μg/ml with livial 10 nM): blocked

C[C@@H]1C[C@H]2[C@@H]3CCC4=CC(=O)C=C[C@]4(C)[C@@]3(F)[C@@H](O)C[C@]2(C)[C@@]1(O)C(=O)CO [dexamethasone, 9-fluro-11,17,21-trihydroxy-16-methylpregn-1,4-diene-3,20-dione]
PRG1 mRNA as percent of control levels ([4]; MDA-MB-231, 100 nM, 3 h): approximately 60 % of control

Source: patent US6472516B1, “Progestin-regulated gene” (The Garvan Institute of Medical Research, priority 1995, dated 2002)
